# Measured values published in patent US20230090708A1, “METHODS AND COMPOSITIONS FOR THE TREATMENT OF HEMANGIOMA” (MASSEY VENTURES LIMITED, priority 2020, published 2023).
# Like-named read-outs stand apart in the source and are kept apart here.
# Experiments:
# [1] = system: proliferating hemangioma cells; assay: Experiment 7: different ACEi and beta blockers on one primary cell line, MTT; assay type: cell-based, human; conditions: for inhibition of proliferating hemangioma cells: 1 μM and 10 μM; for Results Summary: 72 hours, one cell line; for inhibition at 1 µM / inhibition at 10 µM: Homo sapiens, 72 h, read-out: Inhibition vs. Cells + Adjuvant at 72 Hours
# Method: (§1) An in vitro cell culture model of infantile hemangioma was developed to assess the impact of renin-angiotensin system inhibitors on cellular proliferation. A primary cell line of proliferating infantile hemangioma cells, including haemangioma stem cells, was derived from a tissue biopsy obtained from patients during the proliferating phase of the disease. The primary cell lines are cultured in 25 cm^2 flasks using standard culture media and conditions. The cultured cells are used to seed 96-well plates with a seed cell concentration of 2500 or 5000 cells per well, with additional culture media (200 μL). All studies are performed in triplicate.
# The plates are incubated overnight to allow cell adherence to the wells. The wells are photographed to confirm cell adherence and confluency. The appropriate drug(s) to be examined are subsequently added to the wells. […] The media is aspirated from each well and stored frozen for possible future analyses. Media is added to the wells and an MTT determination is undertaken according to standard protocols.
# (§2) From the triplicate incubations of each drug concentration at each time, as well as for all controls, the mean±standard deviation is calculated. The net survival (optical density value) is calculated by subtracting the appropriate blank mean value from each cell culture. From the MTT data, the percentage of survival of cells in the presence of each concentration of drug after each time of culturing is determined.
# Briefly, cells were seeded in 96-well plates at concentrations of 2500 cells/well in triplicate for each drug and drug combination. […] All plates were performed in triplicate. Beta blockers used in the study were (±)-propranolol, R-propranolol, S-propranolol, timolol, and betaxalol.
# [2] = cited from earlier work
# proliferating IH = conditions: cited from earlier work
# [3] = system: proliferating infantile hemangioma cells derived from multiple patients (n=5); assay: Example 4: single agents and combinations on five patient-derived cell lines, MTT; assay type: cell-based, human; conditions: for Individual Responders at 72 Hours with ≥30% Inhibition vs. Cells + Adjuvant: responders/cell lines; for Results Summary: 72 hours, n=5 cell lines; for Estimated Optimal Dosage Range in vitro / inhibition of all five patient-derived haemangioma cell lines: single agent
# Method: An in vitro cell culture model of infantile hemangioma was developed to assess the impact of renin-angiotensin system inhibitors on cellular proliferation. A primary cell line of proliferating infantile hemangioma cells, including haemangioma stem cells, was derived from a tissue biopsy obtained from patients during the proliferating phase of the disease. The primary cell lines are cultured in 25 cm^2 flasks using standard culture media and conditions. The cultured cells are used to seed 96-well plates with a seed cell concentration of 2500 or 5000 cells per well, with additional culture media (200 μL). All studies are performed in triplicate. The plates are incubated overnight to allow cell adherence to the wells. The wells are photographed to confirm cell adherence and confluency. The appropriate drug(s) to be examined are subsequently added to the wells. After 24 hours, one set of plates (experimental and blank) is stopped. The media is aspirated from each well and stored frozen for possible future analyses. Media is added to the wells and an MTT determination is undertaken according to standard protocols. This is repeated at 48 and 72 hours. From the triplicate incubations of each drug concentration at each time, as well as for all controls, the mean±standard deviation is calculated. The net survival (optical density value) is calculated by subtracting the appropriate blank mean value from each cell culture. From the MTT data, the percentage of survival of cells in the presence of each concentration of drug after each time of culturing is determined. […] The experimental protocol was performed as per Example 1. Briefly, cells were seeded in 96-well plates at a concentration of 2500 cells/well in triplicate for each drug and drug combination. Drug(s) were added to each well 24 hours after seeding and re-dosed every 24 hours. Cell viability was assessed by MTT assay after 24, 48, and 72 hours. All plates were performed in triplicate. Drugs were assessed alone and in combination as described in Table 3.
# [4] = cited from earlier work; for Log P: Table 1
# [5] = cited from earlier work; remark: listed apart in the source
# [6] = cited from earlier work; for Half life: short or long acting: in words; for Half life: in vivo
# [7] = system: proliferating hemangioma cell lines (n=9); assay: Example 6: single agents and combinations on nine primary cell lines, MTT, CompuSyn combination index; assay type: cell-based, human
# Method: as §1
# The plates are incubated overnight to allow cell adherence to the wells. The wells are photographed to confirm cell adherence and confluency. The appropriate drug(s) to be examined are subsequently added to the wells. After 24 hours, one set of plates (experimental and blank) is stopped. The media is aspirated from each well and stored frozen for possible future analyses. Media is added to the wells and an MTT determination is undertaken according to standard protocols. This is repeated at 48 and 72 hours.
# as §2
# A study was undertaken using combinations of ACE inhibitors, beta blockers and angiotensin II type 2 receptor blockers to inhibit proliferating hemangioma cells. […] Patient histories pertaining to each cell line is described in Table 5.
# The experimental protocol was performed as per Example 1. Briefly, cells were seeded in 96-well plates at concentrations of 2500 cells/well in triplicate for each drug and drug combination. Drug(s) were added to each well 24 hours after seeding and re-dosed every 24 hours. Cell viability was assessed by MTT assay after 24, 48, and 72 hours. All plates were performed in triplicate. Drugs were assessed alone and in combination, as described in Table 6. Propranolol was used as a model beta blocker, cilazapril as a model ACE inhibitor, and SMM02 (L-159686) as a model AT2Ri. Synergy was measured using the CompuSyn open-source software protocol for quantifying synergism and antagonism that uses the median-effect equation and mass-action laws to generate a combination index (www.compusyn.com). Synergism, additive effects and antagonism are defined as a CI<1, CI=1, and CI>1, respectively.
smiles,measurement,setting,value
CC(C)NCC(O)COc1ccc(CCOCC2CC2)cc1 (stereo not drawn) [Betaxolol],inhibition of proliferating hemangioma cells,[1],no response
same,Results Summary,[1],Non-
same,inhibition at 1 µM,[1],2.8%
same,inhibition at 10 µM,[1],< 0%
C[C@H](CS)C(=O)N1CCC[C@H]1C(=O)O [Captopril],Solubility,[2],130 mg/mL
same,patients with response scored dramatic,proliferating IH; n of eight patients,3
same,patients with response scored medium,proliferating IH; n of eight patients,2
same,patients with response scored slow,proliferating IH; n of eight patients,3
same,effect on proliferating IH,"proliferating IH; oral 1.5 mg/kg daily, eight patients",positive effect in all patients
same,rebound growth after treatment ceased,proliferating IH; treatment ceased after 14 months,no rebound growth
"COc1ccc2c(c1OCc1ccccc1)C[C@@H](C(=O)O)N(C(=O)C(c1ccccc1)c1ccccc1)C2 [EMA401, (S)-5-(benzyloxy)-2-(2,2-diphenylacetyl)-6-methoxy-1,2,3,4-tetrahydroisoquinoline-3-carboxylic acid]",Individual Responders at 72 Hours with ≥30% Inhibition vs. Cells + Adjuvant,[3]; 1 μM,1 μM - ¼
same,Individual Responders at 72 Hours with ≥30% Inhibition vs. Cells + Adjuvant,[3]; 10 μM,10 μM - 4/5
same,Individual Responders at 72 Hours with ≥30% Inhibition vs. Cells + Adjuvant,[3]; 100 μM,100 μM - 5/5
same,Results Summary,[3],Responder
same,Estimated Optimal Dosage Range in vitro,[3],5 to 25 µM
same,inhibition of all five patient-derived haemangioma cell lines,[3],significantly inhibited
CCOC(=O)[C@H](CCc1ccccc1)N[C@@H](C)C(=O)N1CCC[C@H]1C(=O)O [Enalapril],inhibition of proliferating hemangioma cells,[1],good and similar level of inhibition
same,Results Summary,[1],Responder
same,inhibition at 1 µM,[1],1.55%
same,inhibition at 10 µM,[1],67.9%
same,Log P,[4],0.07
same,pKa,[5],2.97
same,pKa,[5]; second value,5.35
same,Half life: short or long acting,[6],Long acting
CCCCc1nc(Cl)c(CO)n1Cc1ccc(-c2ccccc2-c2nn[nH]n2)cc1 [Losartan],Individual Responders at 72 Hours with ≥30% Inhibition vs. Cells + Adjuvant,[3]; 1 μM,1 μM - 0/5
same,Individual Responders at 72 Hours with ≥30% Inhibition vs. Cells + Adjuvant,[3]; 10 μM,10 μM - 0/5
same,Results Summary,[3],Non-Responder
same,inhibition of all five patient-derived haemangioma cell lines,[3],not
CCOC(=O)[C@H](CCc1ccccc1)N[C@@H](C)C(=O)N1Cc2ccccc2C[C@H]1C(=O)O [Quinapril],inhibition of proliferating hemangioma cells,[1],good and similar level of inhibition
same,Results Summary,[1],Responder
same,inhibition at 1 µM,[1],4.87%
same,inhibition at 10 µM,[1],62.3%
same,Log P,[4],3.2
same,log P,[4],3.2
same,pKa,[5],3.7
same,pKa,[5]; second value,5.2
same,Half life: short or long acting,[6],Short acting
"C[C@H](N[C@@H](CCc1ccccc1)C(=O)O)C(=O)N1Cc2ccccc2C[C@H]1C(=O)O [Quinaprilat, quinaprilat]",Half life,[6],3 h (quinaprilat)
"C[C@H](N[C@@H](CCc1ccccc1)C(=O)O)C(=O)N1[C@H](C(=O)O)C[C@@H]2CCC[C@@H]21 [Ramiprilat, ramiprilat]",Half life,[6],13 to 17 h
"O=C(O)[C@@H]1CN(C(=O)N(c2ccccc2)c2ccccc2)CCN1C(=O)N(c1ccccc1)c1ccccc1 [SMM02, (S)-1,4-bis(N,N-diphenylcarbamoyl)piperazine-2-carboxylic acid]",Individual Responders at 72 Hours with ≥30% Inhibition vs. Cells + Adjuvant,[3]; 1 μM,1 μM - 0/4
same,Individual Responders at 72 Hours with ≥30% Inhibition vs. Cells + Adjuvant,[3]; 10 μM,10 μM - 5/5
same,Individual Responders at 72 Hours with ≥30% Inhibition vs. Cells + Adjuvant,[3]; 100 μM,100 μM - 5/5
same,Results Summary,[3],Responder
same,Estimated Optimal Dosage Range in vitro,[3],1 to 10 µM
same,inhibition of all five patient-derived haemangioma cell lines,[3],significantly inhibited
same,dose-response across all cell lines,"[7]; 1 to 10 μM, 72 hours, n=9",non-linear dose-response
same,threshold concentration,"[7]; single agent, consistent inhibition above it",2.5 µM
CCOC(=O)[C@H](CCc1ccccc1)N[C@@H](C)C(=O)N1[C@H](C(=O)O)C[C@H]2CCCC[C@@H]21 [Trandolapril],inhibition of proliferating hemangioma cells,[1],good and similar level of inhibition
same,Results Summary,[1],Responder
same,inhibition at 1 µM,[1],0.63%
same,inhibition at 10 µM,[1],67.8%
same,Log P,[4],3.5
same,log P,[4],3.5
same,pKa,[5],3.8
same,pKa,[5]; second value,5.2
same,Half life,[6],6 h
same,Half life: short or long acting,[6],Long acting
"C[C@H](N[C@@H](CCc1ccccc1)C(=O)O)C(=O)N1[C@H](C(=O)O)C[C@H]2CCCC[C@@H]21 [Trandolaprilat, trandolaprilat]",Half life,[6],10 h
O=C(O)CN1C(=O)[C@@H](N[C@@H](CCc2ccccc2)C(=O)O)CCc2ccccc21 [benazeprilat],Half life,[6],10 to 11 h
C[C@H](N[C@@H](CCc1ccccc1)C(=O)O)C(=O)N1CCC[C@H]1C(=O)O [enalaprilat],Half life,[6],11 h (enalaprilat)
